Assays:
Assay in all cases: relative viability (nuclei count vs DMSO), 5 days (fraction); higher = more cells survive
Alpelisib + Pictilisib = compound: Cc1nc(NC(=O)N2CCC[C@H]2C(N)=O)sc1-c1ccnc(C(C)(C)C(F)(F)F)c1 [Alpelisib] + CS(=O)(=O)N1CCN(Cc2cc3nc(-c4cccc5[nH]ncc45)nc(N4CCOCC4)c3s2)CC1 [Pictilisib] (partner 1 µM)
In short: (§1)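 Medians of duplicate plates are given as relative viability. That measure is the nuclei count in treated wells divided by the count in vehicle wells. Counts were taken on 4× images of lung cancer cell lines in 1536-well plates, 5 days after pin-tool dosing the day after seeding with one drug alone or a fixed anchor-drug dose plus five library-drug doses (not always all listed) in √10 steps.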

Alpelisib + Crizotinib = compound: Cc1nc(NC(=O)N2CCC[C@H]2C(N)=O)sc1-c1ccnc(C(C)(C)C(F)(F)F)c1 [Alpelisib] + C[C@@H](Oc1cc(-c2cnn(C3CCNCC3)c2)cnc1N)c1c(Cl)ccc(F)c1Cl [Crizotinib] (partner 1 µM)
In short: as §1

Alpelisib + Pemetrexed = compound: Cc1nc(NC(=O)N2CCC[C@H]2C(N)=O)sc1-c1ccnc(C(C)(C)C(F)(F)F)c1 [Alpelisib] + Nc1nc2[nH]cc(CCc3ccc(C(=O)N[C@@H](CCC(=O)O)C(=O)O)cc3)c2c(=O)[nH]1 [Pemetrexed] (partner 0.2 µM)
In short: as §1

Alpelisib + Olaparib = compound: Cc1nc(NC(=O)N2CCC[C@H]2C(N)=O)sc1-c1ccnc(C(C)(C)C(F)(F)F)c1 [Alpelisib] + O=C(c1cc(Cc2n[nH]c(=O)c3ccccc23)ccc1F)N1CCN(C(=O)C2CC2)CC1 [Olaparib] (partner 8 µM)
In short: as §1

| Cell Line | relative viability (Alpelisib + Pictilisib; first compound 0.04 µM) | relative viability (Alpelisib + Pictilisib; first compound 0.1265 µM) | relative viability (Alpelisib + Pictilisib; first compound 0.4 µM) | relative viability (Alpelisib + Pictilisib; first compound 1.265 µM) | relative viability (Alpelisib + Pictilisib; first compound 4 µM) | relative viability (Alpelisib + Crizotinib; first compound 0.04 µM) | relative viability (Alpelisib + Crizotinib; first compound 0.1265 µM) | relative viability (Alpelisib + Crizotinib; first compound 0.4 µM) | relative viability (Alpelisib + Crizotinib; first compound 1.265 µM) | relative viability (Alpelisib + Crizotinib; first compound 4 µM) | relative viability (Alpelisib + Pemetrexed; first compound 0.04 µM) | relative viability (Alpelisib + Pemetrexed; first compound 0.1265 µM) | relative viability (Alpelisib + Pemetrexed; first compound 0.4 µM) | relative viability (Alpelisib + Pemetrexed; first compound 1.265 µM) | relative viability (Alpelisib + Pemetrexed; first compound 4 µM) | relative viability (Alpelisib + Olaparib; first compound 0.04 µM) | relative viability (Alpelisib + Olaparib; first compound 0.1265 µM) | relative viability (Alpelisib + Olaparib; first compound 0.4 µM) | relative viability (Alpelisib + Olaparib; first compound 1.265 µM) | relative viability (Alpelisib + Olaparib; first compound 4 µM) |
| --- | --- | --- | --- | --- | --- | --- | --- | --- | --- | --- | --- | --- | --- | --- | --- | --- | --- | --- | --- | --- |
| HOP-62 | 1.06 | 0.698 | 0.988 | 0.586 | 0.727 | 0.97 | 0.714 | 0.884 | 0.733 | 0.72 | 0.342 | 0.28 | 0.364 | 0.26 | 0.297 | 0.533 | 0.435 | 0.532 | 0.282 | 0.401 |
| NCI-H650 | 0.756 | 0.804 | 1.09 | 0.746 | 0.808 | 0.737 | 0.693 | 0.88 | 0.478 | 0.546 | 0.909 | 0.923 | 0.879 | 0.794 | 0.757 | 0.391 | 0.409 | 0.425 | 0.378 | 0.317 |
| NCI-H1651 | 0.606 | 0.596 | 0.638 | 0.547 | 0.644 | 0.845 | 0.906 | 0.889 | 0.784 | 0.694 | 0.543 | 0.525 | 0.594 | 0.541 | 0.538 | 0.182 | 0.188 | 0.203 | 0.198 | 0.17 |
| CAL-12T | 0.388 | – | 0.65 | – | 0.329 | 0.66 | 0.53 | 0.711 | 0.556 | 0.596 | 1.26 | 1.14 | 1.3 | 0.93 | 1.03 | 0.771 | 0.774 | 0.767 | 0.726 | 0.745 |
| LK-2 | 0.531 | 0.571 | 0.643 | 0.524 | 0.578 | 0.284 | 0.188 | 0.215 | 0.233 | 0.252 | 0.247 | 0.252 | 0.213 | 0.209 | 0.199 | 0.636 | 0.464 | 0.74 | 0.301 | 0.328 |
| EKVX | 0.441 | 0.419 | 0.419 | 0.466 | 0.428 | 0.956 | 0.918 | 1.06 | 0.749 | 0.619 | 0.411 | 0.406 | 0.461 | 0.341 | 0.349 | 0.856 | 0.897 | 1.1 | 0.753 | 0.512 |
| EMC-BAC-2 | 0.512 | 0.516 | 0.62 | 0.528 | 0.479 | 0.752 | 0.778 | 0.753 | 0.608 | 0.496 | 0.448 | 0.461 | 0.447 | 0.441 | 0.353 | 0.492 | 0.382 | 0.498 | 0.347 | 0.318 |
| NCI-H520 | 0.244 | 0.316 | 0.318 | 0.304 | 0.289 | 0.823 | 0.75 | 0.739 | 0.463 | 0.515 | 0.609 | 0.716 | 0.707 | 0.557 | 0.413 | 0.285 | 0.298 | 0.331 | 0.231 | 0.272 |
| NCI-H322M | 0.491 | 0.553 | 0.544 | 0.473 | 0.478 | 0.797 | 0.955 | 0.892 | 0.708 | 0.693 | 0.561 | 0.61 | 0.588 | 0.489 | 0.578 | 0.804 | 0.82 | 0.791 | 0.671 | 0.53 |
| COR-L 105 | 0.39 | 0.352 | 0.435 | 0.378 | 0.341 | 0.697 | 1 | 0.879 | 0.691 | 0.695 | 1.12 | 1.18 | 1.39 | 0.935 | 1.13 | 0.706 | 0.646 | 0.755 | 0.686 | 0.642 |
| NCI-H2170 | 0.322 | 0.328 | 0.331 | 0.343 | 0.283 | 1.08 | 1.17 | 1.23 | 0.729 | 0.71 | 0.277 | 0.23 | 0.281 | 0.29 | 0.265 | 0.519 | 0.586 | 0.596 | 0.481 | 0.466 |
| NCI-H358 | 0.382 | 0.316 | 0.379 | 0.268 | 0.205 | 0.785 | 0.534 | 0.725 | 0.473 | 0.354 | 0.196 | 0.163 | 0.145 | 0.143 | 0.145 | 0.665 | 0.578 | 0.544 | 0.403 | 0.332 |
| NCI-H2405 | 0.443 | 0.502 | 0.527 | 0.488 | 0.39 | 0.858 | 0.772 | 0.889 | 0.662 | 0.735 | 1.08 | 0.975 | 1.02 | 0.814 | 0.571 | 0.905 | 0.864 | 0.898 | 0.657 | 0.71 |
| 201T | 0.655 | 0.725 | 0.637 | 0.642 | 0.62 | 0.985 | 1 | 1.07 | 0.98 | 0.936 | 0.328 | 0.325 | 0.361 | 0.305 | 0.269 | 0.82 | 0.81 | 0.859 | 0.774 | 0.679 |
| H3255 | 0.409 | 0.516 | 0.533 | 0.356 | 0.411 | 0.85 | 1.05 | 1.16 | 0.631 | 0.675 | 0.586 | 0.614 | 0.603 | 0.526 | 0.507 | 0.571 | 0.59 | 0.651 | 0.538 | 0.474 |

From the supplement of paper PMC10307832
